Laboratory results reported in ChEMBL document CHEMBL1145975, “Tricyclic indole-2-carboxylic acids: highly in vivo active and selective antagonists for the glycine binding site of the NMDA receptor” (J Med Chem, 2003).

Experiments:
[1] = target: T1, Glutamate receptor ionotropic, NMDA 1 (Rattus norvegicus, UniProt P35439); experiment: Affinity for glycine site of N-methyl-D-aspartate glutamate receptor determined by displacement of tritium labeled selective glycine antagonist [3H]- SM-18400; type: functional
Mus musculus [2] = experiment: Number of mice protected from tonic seizures to that of number tested was determined when compound (3 mg/kg) was administered intravenously to 10 mice; type: functional
Mus musculus [3] = species on record: Mus musculus; experiment: Effective dose of compound required to inhibit N-methyl D-aspartate induced seizures in mice; type: functional
Rattus norvegicus [4] = species on record: Rattus norvegicus; experiment: Area under the concentration-time curve from time zero to infinity in whole brain homogenates was determined; type: ADME, organism-based; settings: in vivo
[5] = target: T1, Glutamate receptor ionotropic, NMDA 1; experiment: Binding affinity for glycine site of N-methyl-D-aspartate glutamate receptor determined by displacement of [3H]- DCKA (5,7-dichlorokynurenic acid) in rat cortical membranes; type: cell membranes, Membrane
[6] = Binding affinity for glutamate site of N-methyl-D-aspartate glutamate receptor determined by displacement of [3H]- glutamate in rat cortical membranes; type: cell membranes, Membrane
Rattus norvegicus [7] = experiment: Percent of reduction of cortical infarct volume at dose of 20 mg/kg bolus +20 mg/kg/hr continuous infusion was determined in normotensive rats; type: functional
[8] = target: T1, Glutamate receptor ionotropic, NMDA 1; experiment: Binding affinity for glycine site of N-methyl-D-aspartate glutamate receptor determined by displacement of [3H]- glycine in rat cortical membranes; type: cell membranes, Membrane
[9] = target: Glutamate receptor ionotropic, kainate; experiment: Binding affinity for non-NMDA receptor determined by displacement of [3H]- KA (kainic acid) in rat cortical membranes; type: cell membranes, Membrane
[10] = target: Glutamate receptor ionotropic, AMPA (Rattus norvegicus, UniProt P19490+P19491+P19492+P19493); experiment: Binding affinity for non-NMDA receptor determined by displacement of [3H]- AMPA (2-amino-(3-(3-hydroxy-5-methylisoxazole-4-yl)propanoic acid)) in rat cortical membranes; type: cell membranes, Membrane

Row | SMILES | IC50 [1] [nM] | No. of protected/tested (Mus musculus [2]) | ED50 (Mus musculus [3]) [mg/kg] | AUC (Rattus norvegicus [4]) [µg·min/g] | Ki [5] [nM] | Ki [6] [nM] | Cortical infarct volume (Rattus norvegicus [7]) [%] | Ki [8] [nM] | Ki [9] [nM] | Ki [10] [nM]
1 | O=C(O)Cc1ccccc1NC(=O)C[C@@H]1CCc2cc(Cl)cc3[nH]c(C(=O)O)c1c23 | 7.6 | 3 | – | – | – | – | – | – | – | –
2 | NCc1ccc(NC(=O)C[C@@H]2CCc3cc(Cl)cc4[nH]c(C(=O)O)c2c34)cc1 | 18 | 3 | – | – | – | – | – | – | – | –
3 | C[C@H](C(=O)O)c1cc(CN)ccc1NC(=O)C[C@@H]1CCc2cc(Cl)cc3[nH]c(C(=O)O)c1c23 | 29 | 4 | 3.7 | – | – | – | – | – | – | –
4 | C[C@@H](C(=O)O)c1cc(CN)ccc1NC(=O)C[C@@H]1CCc2cc(Cl)cc3[nH]c(C(=O)O)c1c23 | 2.7 | 5 | 2.3 | 10 | 1 | > 10000 | 84 | 11 | > 10000 | > 10000
5 | NCc1ccc(NC(=O)C[C@@H]2CCc3cc(Cl)cc4[nH]c(C(=O)O)c2c34)c(CC(=O)O)c1 | 1.5 | 5 | 1.8 | – | – | – | 30 | – | – | –
6 | O=C(C[C@@H]1CCc2cc(Cl)cc3[nH]c(C(=O)O)c1c23)Nc1ccccc1 | 19 | 3 | – | – | – | – | – | – | – | –
7 | NCc1ccc(NC(=O)C[C@@H]2CCc3cc(Cl)cc4[nH]c(=O)c(=O)n2c34)c(OCC(=O)O)c1 | 1 | 10 | 0.41 | 3.3 | – | – | 50 | – | – | –
8 | NCc1ccc(NC(=O)C[C@@H]2CCc3cc(Cl)cc4[nH]c(C(=O)O)c2c34)c(OCC(=O)O)c1 (stereo in doubt; 3a) | 1.2 | 2 | 5 | – | – | – | – | – | – | –
9 | NCc1ccc(NC(=O)C[C@@H]2CCc3cc(Cl)cc4[nH]c(C(=O)O)c2c34)c(OCC(=O)O)c1 (stereo in doubt; 3b) | 33 | – | – | – | – | – | – | – | – | –
